Source: patent US20100261711A1, “SELECTIVE ANTICONVULSANT AGENTS AND THEIR USES” (WiSys Technology Foundation, priority 2009, published 2010)
Marks after values point to notes of the source that are not given here.

How the values were obtained:
α1β3γ2 GABAA receptors = molecular target: T1, α1β3γ2 GABAA receptors (Homo sapiens, UniProt P14867+P18507); experiment: Voltage clamp recordings from Xenopus oocytes; format: cell-based
T1 construct: expressed in transfected cells; host or cells: Xenopus laevis oocytes injected with cRNA
Protocol: The GABAA subunit selectivity of several compounds prepared as described above were determined using voltage clamp recordings from Xenopus oocytes that expressed that αxβ3γ2 GABAA receptor.
In Vitro Expression of GABAA Receptor Subunits The methods used for isolating, culturing, injecting and defolliculating of the oocytes were identical with those described by E. Sigel. […] European journal of pharmacology 1995, 289, (1), 87-95; Sigel, E.;& Baur, R., Allosteric modulation by benzodiazepine receptor ligands of the GABAA receptor channel expressed in Xenopus oocytes. J. Neurosci. 1988, 8, (1), 289-95; Sigel, E.; & Minier, F., The Xenopus oocyte: System for the study of functional expression and modulation of proteins. Molecular Nutrition & Food Research 2005, 49, (3), 228-234. Mature female Xenopus laevis (Nasco, Wis.) were anaesthetized in a bath of ice-cold 0.17% Tricain (Ethyl-m-aminobenzoate, Sigma, Mo.) before decapitation and removal of the frog ovary. Stage 5 to 6 oocytes with the follicle cell layer around them were singled out of the ovary using a platinum wire loop. […]
Voltage Clamp Recordings From Xenopus Oocytes. […] Data were digitized, recorded and measured using a Digidata 1322A data acquisition system (Axon Instruments, Union City, Calif.). […]

[1] = test system: Metrazol-induced clonic seizures; experiment: Subcutaneous Metrazol test (scMet), rats; format: in vivo
[2] = Toxicity (TOX), minimal motor deficit, rats; format: in vivo; details: in vivo; Rat IP
[3] = molecular target: T2, GABAA/α5 (α5β3γ2 GABAA receptors) (Homo sapiens, UniProt P18507+P31644); experiment: Competitive binding assay, [3H]flunitrazepam; details: Binding Affinity at GABAA/α5, αxβ3γ2, [3H]flunitrazepam competition
T2 construct: expressed in transfected cells
Summary of the method: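 Bound ligand was collected on 0.3% polyethyleneimine-pretreated GF/C filters with three ice-cold washes and quantified by liquid scintillation counting; membrane protein was determined against a BSA standard.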

| SMILES | efficacy at α1 (percent of control current) (α1β3γ2 GABAA receptors) [%] | ED50 ([1]; Rat IP) [mg/kg] | scMet, animals protected/tested ([1]; Rat IP, 100 mg/kg, 0.5 hr) | scMet, animals protected/tested ([1]; Rat IP, 100 mg/kg, 4.0 hr) | ED50 ([1]; Rat PO) [mg/kg] | scMet, animals protected/tested ([1]; Rat PO, 50 mg/kg, 0.5 h) | scMet, animals protected/tested ([1]; Rat PO, 50 mg/kg, 1.0 h) | scMet, animals protected/tested ([1]; Rat PO, 50 mg/kg, 2.0 h) | scMet, animals protected/tested ([1]; Rat PO, 50 mg/kg, 4.0 h) | scMet, animals protected/tested ([1]; Rat PO, 50 mg/kg, […]) | TD50 [2] [mg/kg] | Ki [3] [nM] | scMet, animals protected/tested ([1]; Rat PO, 40 mg/kg, 4.0 h) | scMet, animals protected/tested ([1]; Rat PO, 40 mg/kg, 6.0 h) |
| --- | --- | --- | --- | --- | --- | --- | --- | --- | --- | --- | --- | --- | --- | --- |
| C#Cc1ccc2c(c1)C(c1ccccn1)=NCc1c(C(=O)OCC)ncn1-2 [Hz166 (106), 8-Acetylenyl-6-pyridin-2-yl-4H-benzo[f]imidazo[1,5-a][1,4]diazepine-3-carboxylic acid ethyl ester] | 255 | 35.5 | 7/8 | 5/8 | 98.5 | 4/4 | 2/4 | 1/4 | 0/4 | 0/4 | 95.3 |  |  |  |
| C#Cc1ccc2c(c1)C(c1ccccc1)=N[C@H](C)c1nnc(C)n1-2 [SH-TR-CH3 (146), (4R)-8-Ethynyl-1,4-dimethyl-6-phenyl-4H-benzo[f][1,2,4]triazolo[4,3-a][1,4]diazepine] |  |  |  |  |  |  |  |  |  |  |  | 1950 |  |  |
| C#Cc1ccc2c(c1)C(c1ccccc1F)=NCc1c(C(=O)OCC)ncn1-2 [JY-XHe-053 (15), Ethyl-8-acetyleno-6-(2′-fluorophenyl)-4H-benzo[f]imidazo[1,5-a][1,4]diazepine-3-carboxylate] | 289 | 18.2 | 3/4 | 3/4 | 23.7 | 3/4 | 3/4 | 1/4 | 4/4 | 1/4 | 69.6 | 0.671 | 2/4^e | 2/4^e |
